Molecular target: T1, SHP2 protein (Homo sapiens, UniProt Q06124)
T1 sequence (Q06124 1-593): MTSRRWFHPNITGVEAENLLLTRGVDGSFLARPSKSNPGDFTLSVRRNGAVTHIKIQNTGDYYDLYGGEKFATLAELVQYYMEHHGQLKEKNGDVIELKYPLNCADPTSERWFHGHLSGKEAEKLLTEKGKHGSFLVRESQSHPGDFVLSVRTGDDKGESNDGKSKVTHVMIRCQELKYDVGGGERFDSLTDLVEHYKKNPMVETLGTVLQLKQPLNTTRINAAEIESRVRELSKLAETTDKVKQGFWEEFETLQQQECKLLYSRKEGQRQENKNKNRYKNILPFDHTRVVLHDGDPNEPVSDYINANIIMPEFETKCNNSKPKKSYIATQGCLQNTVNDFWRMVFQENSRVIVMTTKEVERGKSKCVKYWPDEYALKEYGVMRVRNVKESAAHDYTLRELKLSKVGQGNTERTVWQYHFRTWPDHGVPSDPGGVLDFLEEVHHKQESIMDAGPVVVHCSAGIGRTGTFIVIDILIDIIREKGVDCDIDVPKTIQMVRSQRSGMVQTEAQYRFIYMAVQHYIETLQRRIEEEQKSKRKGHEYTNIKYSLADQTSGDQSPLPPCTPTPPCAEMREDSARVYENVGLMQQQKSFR
Assay: Measurement of SHP2 protein degradation in MV-4-11 cells (western blotting)
Format: cell-based
Design: endogenous in cells; host or cells: MV-4-11
Settings: MV-4-11 cells, 24 hours
Method in brief: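 SHP2 protein levels were assessed by western blotting in MV-4-11 cells after a 24 hour compound treatment. Lysates were sonicated, centrifuged, normalized by BCA assay at 562 nm, run on Bis-tris 4-12% gels, transferred to NC membrane, probed with anti-SHPTP2 (70 kDa) and anti-GAPDH (37 kDa) antibodies, and detected on LI-COR Odyssey.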

SMILES | SHP2 degradation (%) 10 nM | SHP2 degradation (%) 100 nM | SHP2 degradation (%) 1000 nM
Cc1ncsc1-c1ccc(CNC(=O)[C@@H]2C[C@@H](O)CN2C(=O)[C@@H](NC(=O)C2(F)CC2)C(C)(C)C)c(OCCN2CC3CCC(C2)N3C(=O)CC(=O)Nc2cccc(Sc3cnc(N4CCC(C)(CN)CC4)cn3)c2Cl)c1 [Example 68, (2S,4R)—N-(2-(2-(8-(3-((3-((5-(4-(aminomethyl)-4-methylpiperidin-1-yl)pyrazin-2-yl)thio)-2-chlorophenyl)amino)-3-oxopropanoyl)-3,8-diazabicyclo[3.2.1]octan-3-yl)ethoxy)-4-(4-methylthiazol-5-yl)benzyl)-1-((S)-2-(1-fluorocyclopropane-1-carboxamido)-3,3-dimethylbutanoyl)-4-hydroxypyrrolidine-2-carboxamide] | 83.3% | 98.3% | –
Cc1ncsc1-c1ccc(CNC(=O)[C@@H]2C[C@@H](O)CN2C(=O)[C@@H](NC(=O)C2(F)CC2)C(C)(C)C)c(OCCN2CCN(C(=O)CC(=O)Nc3cccc(Sc4cnc(N5CCC(C)(CN)CC5)cn4)c3Cl)C[C@H]2C(=O)O)c1 [Example 69, (S)-4-(3-((3-((5-(4-(aminomethyl)-4-methylpiperidin-1-yl)pyrazin-2-yl)thio)-2-chlorophenyl)amino)-3-oxopropanoyl)-1-(2-(2-(((2S,4R)-1-((S)-2-(1-fluorocyclopropane-1-carboxamido)-3,3-dimethylbutanoyl)-4-hydroxypyrrolidine-2-carboxamido)methyl)-5-(4-methylthiazol-5-yl)phenoxy)ethyl)piperazine-2-carboxylic Acid] | 20% | 81.9% | –
Cc1ncsc1-c1ccc(CNC(=O)[C@@H]2C[C@@H](O)CN2C(=O)[C@@H](NC(=O)C2(F)CC2)C(C)(C)C)c(OCCN2CCN(C(=O)CC(=O)Nc3cccc(Sc4cnc(N5CCC(C)(CN)CC5)cn4)c3Cl)C[C@@H]2C(=O)O)c1 [Example 70, (R)-4-(3-((3-((5-(4-(aminomethyl)-4-methylpiperidin-1-yl)pyrazin-2-yl)thio)-2-chlorophenyl)amino)-3-oxopropanoyl)-1-(2-(2-(((2S,4R)-1-((S)-2-(1-fluorocyclopropane-1-carboxamido)-3,3-dimethylbutanoyl)-4-hydroxypyrrolidine-2-carboxamido)methyl)-5-(4-methylthiazol-5-yl)phenoxy)ethyl)piperazine-2-carboxylic Acid] | 14.4% | 59.2% | –
Cc1ncsc1-c1ccc(CNC(=O)[C@@H]2C[C@@H](O)CN2C(=O)[C@@H](NC(=O)C2(F)CC2)C(C)(C)C)c(OCCCC2CCN(CCC(=O)Nc3cccc(Sc4cnc(N5CCC(C)(CN)CC5)cn4)c3Cl)CC2)c1 [Example 75, (2S,4R)—N-(2-(3-(1-(3-((3-((5-(4-(aminomethyl)-4-methylpiperidin-1-yl)pyrazin-2-yl)thio)-2-chlorophenyl)amino)-3-oxopropyl)piperidin-4-yl)propoxy)-4-(4-methylthiazol-5-yl)benzyl)-1-((S)-2-(1-fluorocyclopropane-1-carboxamido)-3,3-dimethylbutanoyl)-4-hydroxypyrrolidine-2-carboxamide] | 19.5% | 75.5% | 93.5%
Cc1ncsc1-c1ccc(CNC(=O)[C@@H]2C[C@@H](O)CN2C(=O)[C@@H](NC(=O)C2(F)CC2)C(C)(C)C)c(OCCN2CCN(CC(=O)Nc3cccc(Sc4cnc(N5CCC(C)(CN)CC5)cn4)c3Cl)C(=O)C2)c1 [Example 76, (2S,4R)—N-(2-(2-(4-(2-((3-((5-(4-(aminomethyl)-4-methylpiperidin-1-yl)pyrazin-2-yl)thio)-2-chlorophenyl)amino)-2-oxoethyl)-3-oxopiperazin-1-yl)ethoxy)-4-(4-methylthiazol-5-yl)benzyl)-1-((S)-2-(1-fluorocyclopropane-1-carboxamido)-3,3-dimethylbutanoyl)-4-hydroxypyrrolidine-2-carboxamide] | 94.2% | 99.5% | –

Results, then the compound that gave them:

SHP2 degradation (%) 10 nM | SHP2 degradation (%) 100 nM | SHP2 degradation (%) 1000 nM | SMILES
−1.0% | 29.0% | 87.5% | Cc1ncsc1-c1ccc(CNC(=O)[C@@H]2C[C@@H](O)CN2C(=O)[C@@H](NC(=O)C2(F)CC2)C(C)(C)C)c(OCCCC2CCN(CC(=O)Nc3cccc(Sc4cnc(N5CCC(C)(CN)CC5)cn4)c3Cl)CC2)c1 [Example 71, (2S,4R)—N-(2-(3-(1-(2-((3-((5-(4-(aminomethyl)-4-methylpiperidin-1-yl)pyrazin-2-yl)thio)-2-chlorophenyl)amino)-2-oxoethyl)piperidin-4-yl)propoxy)-4-(4-methylthiazol-5-yl)benzyl)-1-((S)-2-(1-fluorocyclopropane-1-carboxamido)-3,3-dimethylbutanoyl)-4-hydroxypyrrolidine-2-carboxamide]
5.1% | 85.6% | – | Cc1ncsc1-c1ccc(CNC(=O)[C@@H]2C[C@@H](O)CN2C(=O)[C@@H](NC(=O)C2(F)CC2)C(C)(C)C)c(OCCN2CCN(CC(=O)Nc3cccc(Sc4cnc(N5CCC(C)(CN)CC5)cn4)c3Cl)CC2)c1 [Example 72, (2S,4R)—N-(2-(2-(4-(2-((3-((5-(4-(aminomethyl)-4-methylpiperidin-1-yl)pyrazin-2-yl)thio)-2-chlorophenyl)amino)-2-oxoethyl)piperazin-1-yl)ethoxy)-4-(4-methylthiazol-5-yl)benzyl)-1-((S)-2-(1-fluorocyclopropane-1-carboxamido)-3,3-dimethylbutanoyl)-4-hydroxypyrrolidine-2-carboxamide]
8.2% | 81.2% | – | Cc1ncsc1-c1ccc(CNC(=O)[C@@H]2C[C@@H](O)CN2C(=O)[C@@H](NC(=O)C2(F)CC2)C(C)(C)C)c(OCCCN2CCN(CC(=O)Nc3cccc(Sc4cnc(N5CCC(C)(CN)CC5)cn4)c3Cl)CC2)c1 [Example 73, (2S,4R)—N-(2-(3-(4-(2-((3-((5-(4-(aminomethyl)-4-methylpiperidin-1-yl)pyrazin-2-yl)thio)-2-chlorophenyl)amino)-2-oxoethyl)piperazin-1-yl)propoxy)-4-(4-methylthiazol-5-yl)benzyl)-1-((S)-2-(1-fluorocyclopropane-1-carboxamido)-3,3-dimethylbutanoyl)-4-hydroxypyrrolidine-2-carboxamide]
29.0% | 80.5% | 94.5% | Cc1ncsc1-c1ccc(CNC(=O)[C@@H]2C[C@@H](O)CN2C(=O)[C@@H](NC(=O)C2(F)CC2)C(C)(C)C)c(OCCC2CCN(CCC(=O)Nc3cccc(Sc4cnc(N5CCC(C)(CN)CC5)cn4)c3Cl)CC2)c1 [Example 74, (2S,4R)—N-(2-(2-(1-(3-((3-((5-(4-(aminomethyl)-4-methylpiperidin-1-yl)pyrazin-2-yl)thio)-2-chlorophenyl)amino)-3-oxopropyl)piperidin-4-yl)ethoxy)-4-(4-methylthiazol-5-yl)benzyl)-1-((S)-2-(1-fluorocyclopropane-1-carboxamido)-3,3-dimethylbutanoyl)-4-hydroxypyrrolidine-2-carboxamide]

— patent US20250230154A1, “COMPOUND HAVING SHP2 PROTEIN DEGRADING ACTIVITY, AND MEDICAL USES THEREOF” (UBIX THERAPEUTICS, INC., priority 2021, published 2025)
